Data on 15 molecules can be found in US9187471B2, “Pyrido [4,3-b] indole and pyrido [3,4-b] indole derivatives and methods of use” (Medivation Technologies, Inc., priority 2010, dated 2015).

Test [1] concerns the target T1, rat adrenergic α1A receptor (Rattus norvegicus, UniProt P43140).
T1 construct: rat adrenergic α1A receptor obtained from Wistar Rat submaxillary glands; from tissue; host or cells: Wistar rat submaxillary glands
T1 sequence (P43140 1-466): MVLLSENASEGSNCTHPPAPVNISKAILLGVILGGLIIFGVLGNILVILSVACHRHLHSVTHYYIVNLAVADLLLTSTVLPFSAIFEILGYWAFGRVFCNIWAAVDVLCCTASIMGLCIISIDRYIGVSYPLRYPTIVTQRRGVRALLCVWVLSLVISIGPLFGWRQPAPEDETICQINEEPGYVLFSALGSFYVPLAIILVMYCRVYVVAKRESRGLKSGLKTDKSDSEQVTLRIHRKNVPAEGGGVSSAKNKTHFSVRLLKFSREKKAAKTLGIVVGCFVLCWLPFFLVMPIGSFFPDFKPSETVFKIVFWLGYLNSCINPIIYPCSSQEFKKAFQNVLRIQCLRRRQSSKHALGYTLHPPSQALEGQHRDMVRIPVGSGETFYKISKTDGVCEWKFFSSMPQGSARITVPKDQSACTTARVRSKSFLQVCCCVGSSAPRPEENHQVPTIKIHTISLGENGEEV
In words: Adrenergic α1A radioligand binding ([3H]Prazosin). The settings on record: read-out: Adrenergic (0.1 μM) a1A, percent inhibition of specific binding; compound at 0.1 μM; 0.25 nM [3H]Prazosin. On the procedure: To evaluate in radioligand binding assays the activity of compounds of the invention, rat adrenergic α1A receptor obtained from Wistar Rat submaxillary glands (Michel, A. et al, Br. J. Pharmacol. 98:883, 1989) in a modified Tris-HCl buffer (50 mM Tris-HCl buffer, pH 7.4, 0.5 mM EDTA) was used. Compounds of the invention were incubated with 0.25 nM [^3H]Prazosin for 60 min at 25° C. Non-specific binding was estimated in the presence of 10 μM phentolamine Receptor proteins were filtered and washed, the filters were then counted to determine [^3H]Prazosin specifically bound. […] Compounds of the invention were tested in this biochemical assay and percent inhibition of specific binding was determined.

The target of test [2] is T2, human recombinant adrenergic α2C receptor (Homo sapiens, UniProt P18825).
T2 construct: expressed in transfected cells; host or cells: insect Sf9 cells
T2 sequence (P18825 1-462): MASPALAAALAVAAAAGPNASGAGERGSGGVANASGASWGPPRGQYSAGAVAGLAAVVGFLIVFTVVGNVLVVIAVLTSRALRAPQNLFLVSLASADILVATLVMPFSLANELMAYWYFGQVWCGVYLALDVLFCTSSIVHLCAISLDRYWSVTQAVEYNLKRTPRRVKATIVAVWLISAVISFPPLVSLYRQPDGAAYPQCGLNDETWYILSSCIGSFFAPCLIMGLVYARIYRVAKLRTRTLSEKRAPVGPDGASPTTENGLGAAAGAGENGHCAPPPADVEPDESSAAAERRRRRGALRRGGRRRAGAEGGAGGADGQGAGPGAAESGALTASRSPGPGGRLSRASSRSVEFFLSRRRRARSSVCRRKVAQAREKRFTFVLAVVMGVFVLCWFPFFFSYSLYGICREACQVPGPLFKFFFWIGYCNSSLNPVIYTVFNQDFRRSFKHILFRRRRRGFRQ
In words: Adrenergic α2C radioligand binding ([3H]MK-912). As to conditions: read-out: Adrenergic (0.1 μM) a2C, percent inhibition of specific binding; compound at 0.1 μM; 1 nM [3H]MK-912. On the procedure:
To evaluate in radioligand binding assays the activity of compounds of the invention, human recombinant adrenergic α2C receptor expressed in insect Sf9 cells (Uhlen, S. et al, J. Pharmacol. Exp. Ther. 271:1558, 1994) in a modified Tris-HCl buffer (50 mM Tris-HCl, pH 7.4, 12.5 mM MgCl2, 2 mM EDTA) was used. Compounds of the invention were incubated with 1 nM [^3H]MK-912 for 60 min at 25° C. Non-specific binding was estimated in the presence of 10 μM WB-4101. Receptor proteins were filtered and washed, the filters were then counted to determine [^3H]MK-912 specifically bound. […] Compounds of the invention were tested in this biochemical assay and percent inhibition of specific binding was determined.

For test [3], the target named is T3, human recombinant serotonin (5-Hydroxytryptamine) 5-HT2C receptor (Homo sapiens, UniProt P28335).
T3 construct: expressed in transfected cells; host or cells: CHO-K1
T3 sequence (P28335 33-458): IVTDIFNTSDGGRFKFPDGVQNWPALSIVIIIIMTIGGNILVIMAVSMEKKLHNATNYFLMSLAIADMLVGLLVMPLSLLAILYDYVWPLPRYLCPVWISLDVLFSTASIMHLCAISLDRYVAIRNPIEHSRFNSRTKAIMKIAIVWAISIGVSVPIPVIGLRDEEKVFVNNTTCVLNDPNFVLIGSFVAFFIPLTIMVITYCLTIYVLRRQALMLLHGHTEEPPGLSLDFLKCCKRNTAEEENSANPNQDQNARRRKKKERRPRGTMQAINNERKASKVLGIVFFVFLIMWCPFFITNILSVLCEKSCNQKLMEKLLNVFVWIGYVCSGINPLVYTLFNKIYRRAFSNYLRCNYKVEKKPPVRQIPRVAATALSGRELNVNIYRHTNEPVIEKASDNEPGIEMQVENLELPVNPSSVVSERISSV
In words: Serotonin 5-HT2C radioligand binding ([3H]Mesulergine). As to conditions: compound at 0.1 μM; read-out: Inhibition of ligand binding, Serotonin 5-HT2C (percent inhibition of specific binding). Here is the method:
Compounds of the invention were incubated with 1 nM [^3H]Mesulergine for 60 min at 25° C. Non-specific binding was estimated in the presence of 1 μM Mianserin. Receptor proteins were filtered and washed, the filters were then counted to determine [^3H]Mesulergine specifically bound.

Test [4] deals with T4, human recombinant serotonin (5-Hydroxytryptamine) 5-HT5A receptor (Homo sapiens, UniProt P47898).
T4 construct: expressed in transfected cells; host or cells: CHO-K1
T4 sequence (P47898 whole entry): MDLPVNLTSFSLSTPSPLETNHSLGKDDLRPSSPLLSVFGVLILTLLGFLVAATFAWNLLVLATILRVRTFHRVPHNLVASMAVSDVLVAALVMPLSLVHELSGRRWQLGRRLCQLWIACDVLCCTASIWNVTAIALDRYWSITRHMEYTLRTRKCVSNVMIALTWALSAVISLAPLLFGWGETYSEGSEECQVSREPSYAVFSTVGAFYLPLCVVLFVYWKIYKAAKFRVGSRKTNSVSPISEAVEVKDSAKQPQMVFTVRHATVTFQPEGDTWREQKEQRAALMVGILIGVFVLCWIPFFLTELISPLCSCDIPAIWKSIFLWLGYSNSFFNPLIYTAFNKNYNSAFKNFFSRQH
The test can be described thus: Serotonin 5-HT5A radioligand binding ([3H]LSD). As to conditions: compound at 0.1 μM; read-out: Inhibition of ligand binding, Serotonin 5-HT5A (percent inhibition of specific binding). Here is the method: Compounds of the invention were incubated with 1.7 nM [^3H]Lysergic acid diethylamide (LSD) for 60 min at 37° C. […] Receptor proteins were filtered and washed, the filters were counted to determine [^3H]LSD specifically bound.

Test [5] has as its target T5, human recombinant serotonin (5-Hydroxytryptamine) 5-HT7 receptor (Homo sapiens, UniProt P34969).
T5 construct: expressed in transfected cells; host or cells: CHO
The test can be described thus: Serotonin 5-HT7 radioligand binding ([3H]LSD). The settings on record: compound at 0.1 μM; read-out: Inhibition of ligand binding, Serotonin 5-HT7 (percent inhibition of specific binding). Here is the method:
Lysergic acid diethylamide (LSD) for 120 min. at 25° C. […] Receptor proteins were filtered and washed, the filters were then counted to determine [^3H]LSD specifically bound.

T5 sequence (P34969 whole entry): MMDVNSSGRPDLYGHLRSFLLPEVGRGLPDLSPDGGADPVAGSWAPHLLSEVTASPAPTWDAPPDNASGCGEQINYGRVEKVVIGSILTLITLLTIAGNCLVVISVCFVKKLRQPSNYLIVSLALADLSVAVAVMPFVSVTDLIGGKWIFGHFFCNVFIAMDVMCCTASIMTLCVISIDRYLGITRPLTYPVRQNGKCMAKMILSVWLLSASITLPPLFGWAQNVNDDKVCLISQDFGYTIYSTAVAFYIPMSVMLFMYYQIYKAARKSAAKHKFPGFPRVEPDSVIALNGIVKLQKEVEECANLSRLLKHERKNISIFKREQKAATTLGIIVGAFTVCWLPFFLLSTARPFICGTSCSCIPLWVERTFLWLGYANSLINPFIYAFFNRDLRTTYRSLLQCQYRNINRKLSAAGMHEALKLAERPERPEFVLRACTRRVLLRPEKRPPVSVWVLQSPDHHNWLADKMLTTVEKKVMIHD

As to `Cc1ccc2c(c1)c1c(n2-c2ccc(-c3ccc(F)nc3)cn2)CCN(C)C1` [Compound No. 142, 5-(6′-fluoro-3,3′-bipyridin-6-yl)-2,8-dimethyl-2,3,4,5-tetrahydro-1H-pyrido[4,3-b]indole], the inhibition – broadly, the drop in the measured response relative to a control, in per cent – at 0.1 µM is 46% in test [1]; 5% in test [2]; 98% in test [3]; 23% in test [4]; 22% in test [5].

For `Cc1ccc2c(c1)c1c(n2-c2ccccc2-c2ccnn2C)CCN(C)C1` [Compound 32], the inhibition at 0.1 µM in test [1] was determined as 27%; in test [2] it was 20%; in test [3], 50%; in test [4], 26%; in test [5], 55%.

For the molecule `Cc1cc(C)c2c(c1)c1c(n2-c2cccc(-c3ccncc3)c2)CCN(C)C1` [Compound 57, 2,6,8-trimethyl-5-(3-(pyridin-4-yl)phenyl)-2,3,4,5-tetrahydro-1H-pyrido[4,3-b]indole], the inhibition at 0.1 µM is 3% in test [1]; 3% in test [2]; 28% in test [3]; 26% in test [4]; 39% in test [5].

As to `CNC(=O)c1ccc(-c2ccccc2-n2c3c(c4cc(C)ccc42)CN(C)CC3)cn1` [Compound No. 71, 5-(2-(2,8-dimethyl-3,4-dihydro-1H-pyrido[4,3-b]indol-5(2H)-yl)phenyl)-N-methylpicolinamide], the inhibition at 0.1 µM is 65% in test [1]; -1% in test [2]; 15% in test [3]; 29% in test [4]; 27% in test [5].

For `Cc1ccc2c(c1)c1c(n2-c2cscc2-c2ccnn2C)CCN(C)C1` [Compound No. 150], the inhibition at 0.1 µM is 36% in test [1]; 10% in test [2]; 64% in test [3]; 65% in test [4]; 88% in test [5].

`Cc1ccc2c(c1)c1c(n2-c2cscc2-c2cnn(C)c2)CCN(C)C1` [Compound 30]: the inhibition at 0.1 µM was 62% in test [1]; 10% in test [2]; 84% in test [3]; 77% in test [4]; 94% in test [5].

As to `Cc1ccc2c(c1)c1c(n2-c2ccc(-c3ccnn3C)cn2)CCN(C)C1` [Compound No. 146, 2,8-dimethyl-5-(5-(1-methyl-1H-pyrazol-5-yl)pyridin-2-yl)-2,3,4,5-tetrahydro-1H-pyrido[4,3-b]indole], the inhibition at 0.1 µM was 33% in test [1]; -1% in test [2]; 30% in test [3]; 10% in test [4]; 16% in test [5].

With `Cc1ccc2c(c1)c1c(n2-c2cscc2-c2cccc3[nH]ncc23)CCN(C)C1` [Compound 41], the inhibition at 0.1 µM is 59% in test [1]; 55% in test [2]; 91% in test [3]; 94% in test [4]; 96% in test [5].

With `Cc1ccc2c(c1)c1c(n2-c2ccc(-c3cccc4[nH]ncc34)cn2)CCN(C)C1` [Compound No. 147, 5-(5-(1H-indazol-4-yl)pyridin-2-yl)-2,8-dimethyl-2,3,4,5-tetrahydro-1H-pyrido[4,3-b]indole], the inhibition at 0.1 µM was found to be 37% in test [1]; 1% in test [2]; 69% in test [3]; 23% in test [4]; 14% in test [5].

For the molecule `Cc1ccc2c(c1)c1c(n2-c2ccc3ccncc3c2)CCN(C)C1` [Compound No. 74, 5-(isoquinolin-7-yl)-2,8-dimethyl-2,3,4,5-tetrahydro-1H-pyrido[4,3-b]indole], the inhibition at 0.1 µM in test [1] came to 52%; in test [2] it was 11%; in test [3] it was 51%; in test [4], 21%; in test [5], 2%.

With `Cc1ccc2c(c1)c1c(n2-c2cccc(-c3cncc4ccccc34)c2)CCN(C)C1` [Compound No. 67, 5-(3-(isoquinolin-4-yl)phenyl)-2,8-dimethyl-2,3,4,5-tetrahydro-1H-pyrido[4,3-b]indole], the inhibition at 0.1 µM in test [1] was 1%; in test [2] it was 8%; in test [3], 23%; in test [4] it was 39%; in test [5], 28%.

Take `CNC(=O)c1ccc(-c2cscc2-n2c3c(c4cc(C)ccc42)CN(C)CC3)cn1` [Compound No. 73]: the inhibition at 0.1 µM came out at 71% in test [1]; 2% in test [2]; 43% in test [3]; 48% in test [4]; 66% in test [5].

As for `Cc1ccc2c(c1)c1c(n2-c2cscc2-c2cc3ccccc3s2)CCN(C)C1` [Compound No. 151], the inhibition at 0.1 µM stood at 64% in test [1]; 52% in test [2]; 47% in test [3]; 102% in test [4]; 90% in test [5].

On to `CNC(=O)c1cc(-n2c3c(c4cc(C)ccc42)CN(C)CC3)cs1` [Compound No. 78], for which the inhibition at 0.1 µM turned out to be 16% in test [1]; 3% in test [2]; 35% in test [3]; 24% in test [4]; 22% in test [5].

Take `Cc1ccc2c(c1)c1c(n2-c2cscc2-c2ccc(C)s2)CCN(C)C1` [Compound No. 79]: the inhibition at 0.1 µM in test [1] came out at 79%; in test [2], 77%; in test [3], 92%; in test [4], 93%; in test [5] it was 98%.
